# Where “and” joins values, the source holds several entries; their conditions need not be identical. Equal values may be shown once. Read-outs that look alike come from different tables or passages of the source.
# Key:
# [1] = Plasma exposure after oral dosing, LC/MS/MS; format: in vivo; settings: male, Sprague Dawley (Harlan), rat plasma, read-out: Plasma Levels
# Protocol: Male Harlan Sprague Dawley rats are treated with the compound of Example 1A of the present invention using a 3% lactic acid/water oral formulation at doses of […], 0.3, 1, 3, 10 and 30 mg/kg. […] The increasing levels of kappa receptor occupancy are driven by roughly proportional increases in plasma and brain exposure of the compound of Example 1A of the present invention up to a dose of 30 mg/kg.
# Plasma exposure of Example 1A of the present invention in the rat following administration is determined from plasma isolated from trunk blood collected at the time of tissue collection for receptor occupancy. Levels of the compound of Example 1A are detected by LC/MS/MS (API 4000, MDS Sciex) and quantified from a standard curve of Example 1A prepared in vehicle treated rat plasma.
# [2] = test system: Male NIH-Swiss mice; assay: Mouse forced swim test; format: in vivo; settings: for immobility in mouse forced swim test, Mean: 60 min
# Text: This test evaluates the effect of test compound on mice mobility as a measure of antidepressant effect. The less immobility compared to vehicle, the more pronounced the antidepressant-like effect.
# Male, NIH-Swiss mice (25-30 g) (Harlan Sprague-Dawley, Indianapolis, Ind., USA) are housed in a vivarium for at least one week prior to use with water and rodent chow freely available during this acclimation period. Animals are removed from the vivarium to the testing area in their home cages and allowed to adapt to the new environment for at least one hour before testing.
# Mice are placed in clear plastic cylinders (diameter: 10 cm; height: 25 cm) filled with 6 cm of water (22-25° C.) for six minutes. The duration of immobility during the last four minutes of the six minutes test period is scored. A mouse is recorded as immobile when floating motionless or making only those movements necessary to keep its head above water.
# The test compound is administered p.o. 1 hour prior to testing at 1.0 mg/kg, 3.0 mg/kg and 10.0 mg/kg, n of 8 per group in a vehicle of 5 ml of sterile water and 30 ml of diluted (10×) lactic acid. Imipramine is evaluated as a positive control, 15 mg/kg: p, 30 min. prior to testing n of 4.
# A second study is carried out evaluating 1 and 3 mg/kg doses of the compound of Example 1A alone and in combination with 5 mg/kg of imipramine. Imipramine alone is evaluated at 5 and 15 mg/kg doses and a vehicle control is included in the study. For the combination studies, the compound of Example 1A is administered p.o. 30 minutes prior to administration of imipramine i.p. and the test initiated 30 minutes following imipramine administration. An n of 8 per group is evaluated for all groups. For the evaluations of the compound of Example 1A alone, testing is initiated 60 minutes following administration and testing of imipramine only treated animals is initiated 30 minutes following administration.
# [3] = test system: Sprague Dawley rats; assay: Prepulse inhibition, reversal of U69593 induced disruption of PPI; format: in vivo, rat
# [4] = test system: Sprague Dawley rats; assay: Prepulse inhibition, reversal of morphine induced disruption of PPI; format: in vivo, rat
structure (smiles),measurement,setting,value
"Cc1cc(C)cc([C@@H]2CCCN2Cc2ccc(Oc3ccc(C(N)=O)cc3F)cc2)c1 (single isomer, unassigned) [Example 1A]",concentration at 5.5 h,"[1]; 0.1 mg/kg, oral dose .1",1.17 ng/g
same,concentration at 5.5 h,"[1]; 0.3 mg/kg, oral dose .3",2.27 ng/g
same,concentration at 5.5 h,"[1]; 1 mg/kg, oral dose 1",4.63 ng/g
same,concentration at 5.5 h,"[1]; 3 mg/kg, oral dose 3",15.4 ng/g
same,concentration at 5.5 h,"[1]; 10 mg/kg, oral dose 10",65.2 ng/g
same,concentration at 5.5 h,"[1]; 30 mg/kg, oral dose 30",106 ng/g
same,"immobility in mouse forced swim test, Mean",[2]; Example 1A 1 mg/kg p.o.,151.53 s
same,"immobility in mouse forced swim test, Mean",[2]; Example 1A 3 mg/kg p.o.,172.02 s
same,"antidepressant-like activity (immobility), in words","[2]; first study, 10.0 mg/kg p.o. 1 hour prior to testing, p<0.05 versus vehicle, Dunnett's test",demonstrates antidepressant-like activity
same,"% Inhibition (PPI), individual rats",[3]; 0.1 mg/kg Example 1A p.o./3.0 mg/kg U-69593 sc,29.86% and 55.18% and 22.97% and 54.62% and 31.90% and 9.79% and 25.88% and 31.40%
same,"% Inhibition (PPI), individual rats",[3]; 0.3 mg/kg Example 1A p.o./3.0 mg/kg U-69593 sc,33.74% and −1.75% and 52.00% and 47.01% and 0.52% and 42.14% and 66.71% and 71.91%
same,"% Inhibition (PPI), individual rats",[3]; 1.0 mg/kg Example 1A p.o./3.0 mg/kg U-69593 sc,30.08% and 52.23% and 24.91% and 70.96% and 55.10% and 71.68% and 61.05% and 59.31%
same,reversal of sensory motor gating deficits induced by the Kappa agonist U-69593,"[3]; rats, Table 6",can reverse
same,"% Inhibition (PPI), individual rats",[4]; 10 mg/kg Example 1A p.o./20 mg/kg morphine sc,42.77% and 21.98% and 40.70% and 0.18% and 21.00% and 21.21% and 50.34% and 26.48% and 18.04% and 21.07% and 29.49% and 50.16% and 18.66% and 63.46%
same,"% Inhibition (PPI), individual rats",[4]; 30 mg/kg Example 1A p.o./20 mg/kg morphine sc,30.93% and 6.85% and 16.56% and 54.32% and 18.94% and 45.40% and 42.78% and 46.29% and 39.26% and 20.35% and 40.02% and 8.61% and 57.12% and 41.32%
same,reversal of sensory motor gating deficits induced by the Mu agonist morphine,"[4]; rats, Table 7",can reverse

# Source: patent publication US8173695B2, “Kappa selective opioid receptor antagonist” (Eli Lilly and Company, priority 2008, dated 2012)
